Consider twelve compounds from ChEMBL document CHEMBL1201862, “PubChem BioAssay data set” (2004).

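Values below derive from 48-hour exposures of cells grown in 96-well plates, with endpoints linearly interpolated between the two concentrations bracketing the appropriate inhibition level. GI50 = concentration required for 50% inhibition of growth.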 The source made the active and inactive calls. No stated cut-off is given here; in the data, active = GI50 up to about 1.1 µM and inactive = higher.

Some test systems named below: TK-10; HCC 2998; HL-60; HCT-15; RPMI-8226; HT-29; MCF7; SF-268; OVCAR-8; SNB-19; SK-MEL-28; U-251; RXF 393; NCI/ADR-RES; T47D; K562; ACHN; IGROV-1.
Common to all, as to test: NCI-60 cell line screen, 48 h

Regarding `Cc1cc(C)c(/C=C2\C(=O)Nc3ccccc32)[nH]1` [SEMAXANIB], the GI50 in the test with TK-10 is > 100 µM (inactive); in the test with HCC 2998, 38.8 µM (inactive); with HL-60, 7.28 µM (inactive); in the test with HCT-15, 34.8 µM; with RPMI-8226 it was > 100 µM (inactive); in the test on HT-29, 35.6 µM (inactive). Besides, the GI50 was 83.9 µM (inactive) in the test with MCF7; > 100 µM (inactive) with SF-268; > 49.5 µM (inactive) in the test on OVCAR-8; > 100 µM (inactive) in the test on SNB-19; > 100 µM (inactive) in the test with SK-MEL-28; > 100 µM (inactive) in the test with U-251. In addition, the GI50 with RXF 393 was > 100 µM (inactive); in the test on NCI/ADR-RES, > 100 µM (inactive); with T47D, > 100 µM (inactive); in the test with K562, > 100 µM (inactive); in the test with ACHN it was 66.2 µM (inactive).
In the case of `COc1cc(C2C3=C(N=C4SC(C(C)=O)=C(C)N42)c2ccccc2CC3)cc(OC)c1OC` (stereo not given), the GI50 in the test with HCC 2998 was > 100 µM (inactive); in the test with HL-60, 30.8 µM (inactive); with RPMI-8226, 13.8 µM (inactive); in the test on HT-29, 64.4 µM (inactive); in the test on MCF7 it was 75.5 µM (inactive); with IGROV-1 it was 52 µM (inactive). The GI50 in the test with SF-268 was > 100 µM (inactive); in the test on OVCAR-8 it was > 100 µM (inactive); in the test on SNB-19 it was > 100 µM (inactive); in the test with SK-MEL-28, > 100 µM (inactive); with U-251, > 100 µM (inactive); with RXF 393, 46.8 µM (inactive). Also, the GI50 is 78.9 µM (inactive) in the test with NCI/ADR-RES, 11.4 µM (inactive) with T47D, 26.4 µM (inactive) with K562 and > 100 µM (inactive) with ACHN.
With `COc1cc(C(=O)C2CC3(CCC2(O)c2cc(OC)c(OC)c(OC)c2)CC(=O)Nc2ccccc2C3=O)cc(OC)c1OC` (stereo not given), the GI50 is > 100 µM (inactive) in the test on TK-10; 50.7 µM (inactive) in the test on HCC 2998; 30.5 µM (inactive) with HL-60; 50.6 µM in the test on HCT-15; > 100 µM (inactive) with HT-29; 60.4 µM (inactive) in the test on MCF7. Further, the GI50 in the test on IGROV-1, with SF-268, in the test with OVCAR-8, in the test with SNB-19, in the test with SK-MEL-28 and in the test with U-251 was > 100 µM (inactive) in each case. The GI50 in the test with RXF 393 is 99.5 µM (inactive); with NCI/ADR-RES, > 100 µM (inactive); in the test with T47D, 36.6 µM (inactive); in the test with K562, 63.8 µM (inactive).
For `CCOC(=O)c1csc(NC(=O)C(C)N2CCCCC2)n1` (stereo not given), the GI50 is > 100 µM (inactive) in the test on TK-10; > 100 µM (inactive) with HCC 2998; > 100 µM (inactive) in the test with HL-60; over 100 µM in the test with HCT-15; > 100 µM (inactive) in the test with RPMI-8226; > 100 µM (inactive) in the test with HT-29. Further, the GI50 in the test on MCF7, in the test on IGROV-1, in the test on OVCAR-8, with SNB-19, in the test with SK-MEL-28 and with U-251 was > 100 µM (inactive) in each case. Moreover, the GI50 in the test on RXF 393, with NCI/ADR-RES, with T47D, in the test with K562 and in the test with ACHN was > 100 µM (inactive) each time.
Consider `Nc1nc(Cl)cc(NCC2(CCO)CCC2)n1`, for which the GI50 in the test on TK-10 was > 100 µM (inactive); in the test with HCC 2998, > 100 µM (inactive); in the test on HL-60 it was > 100 µM (inactive); in the test on HCT-15, over 100 µM; in the test with RPMI-8226, > 100 µM (inactive); in the test on HT-29 it was > 100 µM (inactive). Further, the GI50 in the test with MCF7, in the test on IGROV-1, with OVCAR-8, with SNB-19, with SK-MEL-28 and with U-251 was > 100 µM (inactive) each time. The GI50 with RXF 393 is 80.5 µM (inactive); in the test with NCI/ADR-RES, > 100 µM (inactive); in the test with T47D it was 22.2 µM (inactive); in the test with K562, > 100 µM (inactive); with ACHN, > 100 µM (inactive).
In the case of `CCC(=O)OCN(C)c1nc(N(C)COC(=O)CC)nc(N(C)COC(=O)CC)n1`, the GI50 is > 100 µM (inactive) in the test on TK-10; 24.6 µM (inactive) in the test with HCC 2998; > 10 µM (inactive) with HL-60; 21.4 µM in the test on HCT-15; 27.4 µM (inactive) with RPMI-8226; 26.9 µM (inactive) in the test with HT-29. The GI50 is 42 µM (inactive) in the test with MCF7; > 100 µM (inactive) with IGROV-1; 69.3 µM (inactive) with OVCAR-8; > 100 µM (inactive) in the test on SNB-19; 64.9 µM (inactive) in the test with SK-MEL-28; > 100 µM (inactive) in the test on U-251. Also, the GI50 with RXF 393 is 10.9 µM (inactive); with NCI/ADR-RES, 32.4 µM (inactive); in the test with T47D, 35.3 µM (inactive); in the test on K562, 13.7 µM (inactive).
Take `CC1(C)CC(=O)c2c(nc3c4c([nH]c(-c5ccc([N+](=O)[O-])cc5)c24)CC(C)(C)C3)C1`: the GI50 in the test on TK-10 is 50.7 µM (inactive); with HCC 2998, 27.5 µM (inactive); in the test with HL-60 it was 15.6 µM (inactive); in the test on HCT-15, 25.2 µM; in the test on HT-29 it was 11.1 µM (inactive); with MCF7, 27.7 µM (inactive). Further, the GI50 in the test on SF-268 was 50.9 µM (inactive); with OVCAR-8 it was 38.3 µM (inactive); with SNB-19, 48.4 µM (inactive); with SK-MEL-28 it was 60.8 µM (inactive); with U-251, 26.7 µM (inactive); in the test on RXF 393, 25.8 µM (inactive). For the same compound, the GI50 was 21.5 µM (inactive) with NCI/ADR-RES, 26.9 µM (inactive) with T47D, 20.1 µM (inactive) with K562 and 28 µM (inactive) in the test on ACHN.
As to `C[C@]12CC[C@H](O)CC1=CC[C@@H]1[C@@H]2CC[C@]2(C)C(=O)CC[C@@H]12` [PRASTERONE], the GI50 in the test with TK-10 is > 100 µM (inactive); in the test with HCC 2998 it was > 100 µM (inactive); in the test on HCT-15 it was over 100 µM; with RPMI-8226, > 100 µM (inactive); in the test with HT-29 it was > 100 µM (inactive); with MCF7 it was > 100 µM (inactive). Moreover, the GI50 with SF-268, in the test on OVCAR-8, in the test with SNB-19, in the test on SK-MEL-28, in the test with U-251 and in the test on RXF 393 was > 100 µM (inactive) in each case. In addition, the GI50 in the test on NCI/ADR-RES, in the test on T47D and in the test with ACHN was > 100 µM (inactive) throughout.
Consider `CN1c2ccccc2SC2C(c3ccccc3)=NOC21` (stereo not given), for which the GI50 was 16.2 µM (inactive) with TK-10; 23.3 µM (inactive) in the test with HCC 2998; 53.7 µM (inactive) with HL-60; 15.5 µM with HCT-15; 30.1 µM (inactive) in the test with HT-29; 42.7 µM (inactive) with MCF7. In addition, the GI50 is 41.6 µM (inactive) in the test on IGROV-1; 51.8 µM (inactive) in the test on SF-268; 49.3 µM (inactive) with OVCAR-8; 73.3 µM (inactive) in the test with SNB-19; 31.1 µM (inactive) in the test on SK-MEL-28; 38.5 µM (inactive) in the test with U-251. Moreover, the GI50 with RXF 393 was > 100 µM (inactive); in the test with NCI/ADR-RES, 29.8 µM (inactive); in the test on T47D, 21.5 µM (inactive); with K562 it was 22.6 µM (inactive); in the test on ACHN it was 52.6 µM (inactive).
For the compound `CN(C)N1C(=O)S/C(=C\c2ccc([N+](=O)[O-])cc2)C1=O`, the GI50 with TK-10 is > 100 µM (inactive); in the test on HCC 2998, > 100 µM (inactive); in the test with HL-60, 34 µM (inactive); with HCT-15 it was over 100 µM; in the test on HT-29, > 100 µM (inactive); in the test with MCF7, > 100 µM (inactive). In addition, the GI50 with IGROV-1 was > 100 µM (inactive); in the test on SF-268 it was > 100 µM (inactive); in the test on OVCAR-8 it was 99.3 µM (inactive); in the test with SK-MEL-28 it was > 100 µM (inactive); with U-251, 51.5 µM (inactive); in the test with RXF 393, > 100 µM (inactive). Further, the GI50 was > 100 µM (inactive) with NCI/ADR-RES, 65.5 µM (inactive) with T47D and > 100 µM (inactive) in the test on ACHN.
On to `COC(=O)[C@H](Cc1ccccc1)NP(=O)(O)OCC1C=CC(n2cc(C)c(=O)[nH]c2=O)O1` (stereo not given in full), for which the GI50 in the test on TK-10 is > 100 µM (inactive); in the test on HCC 2998, > 100 µM (inactive); with HL-60, > 100 µM (inactive); in the test on HCT-15 it was over 100 µM; in the test with RPMI-8226 it was > 100 µM (inactive); in the test on HT-29, > 100 µM (inactive). Moreover, the GI50 in the test with MCF7, in the test on IGROV-1, in the test with SF-268, with OVCAR-8, in the test with SNB-19 and in the test on U-251 was > 100 µM (inactive) each time. The GI50 in the test with RXF 393 is > 100 µM (inactive); with NCI/ADR-RES, > 100 µM (inactive); in the test with T47D, > 100 µM (inactive); in the test on K562 it was > 100 µM (inactive); in the test with ACHN, 26.3 µM (inactive).
In the case of `O=C1CC2(CCC(O)(c3cccc4ccccc34)C(C(=O)c3cccc4ccccc34)C2)C(=O)c2ccccc2N1` (stereo not given), the GI50 in the test on TK-10 is 29.1 µM (inactive); in the test with HCC 2998, 26.1 µM (inactive); in the test with HL-60, > 10 µM (inactive); in the test with HCT-15 it was 26.4 µM; in the test with HT-29 it was 7.93 µM (inactive); in the test with MCF7 it was 36 µM (inactive). In addition, the GI50 is > 100 µM (inactive) in the test with IGROV-1; 15.7 µM (inactive) with SF-268; > 100 µM (inactive) in the test on OVCAR-8; 5.09 µM (inactive) in the test on SNB-19; 11.1 µM (inactive) in the test on SK-MEL-28; 11.1 µM (inactive) in the test with U-251. The GI50 in the test with RXF 393 was 4.1 µM (inactive); in the test on NCI/ADR-RES, > 100 µM (inactive); with T47D it was 34.5 µM (inactive); in the test on K562 it was 15.6 µM (inactive).
